What was measured:
Assay type in all cases: cell-based
293 cells = experiment: Growth of 293 cells in transferrin-free 293 SFM with metal binding compounds; details: third passage
Experimental: Semi-confluent adherent cultures of 293 Cells (ATCC, CRL 1573) are readily adapted to suspension culture. The cells are first detached with a solution of Trypsin-EDTA (0.05% Trypsin, 0.53 mM Na4EDTA), and then resuspended in conventional medium supplemented with 10% FBS to inhibit the trypsin. The resuspended cells are centrifuged at 200×g for five minutes. The cell pellet is resuspended in 293 SFM (available from Life Technologies, Rockville, Md.) the formulation of which is described in WO 98/08934 which is specifically incorporated herein by reference. Alternatively, the cells may be detached with Versene (Na4EDTA, 0.53 mM) and resuspended in 293 SFM.
The initial seeding density of the 293 cells after conversion to suspension culture is 1×10^6 cells/mL. The cells are shaken on a rotary shaker at 150 rpm in a 37° C. incubator equilibrated with 8% CO2-92% air. When the cells reach a density of 1.5×10^6 cells/mL they are diluted with 293 SFM to a density of 3.0×10^5 cells/mL. Because 293 cells have a tendency to aggregate, the cells may be vortexed vigorously for approximately 45 seconds to obtain a predominantly single cell suspension at the time of passaging and counting. After several passages in suspension culture, the maximum achievable density may be determined.
The ability of metal binding compounds to support cellular growth was evaluated using 293 cells maintained in 293 SFM (Life Technologies, Rockville, Md.) without transferrin or metal binding compound. Stock cultures containing 5 μg/mL human holo-transferrin were prepared in 293 SFM. For metal binding compound evaluation, 293 cells were established in 125 mL shaker flasks at an initial viable seeding density of 2×10^5 cells/mL in a final volume of 20 mL. All cultures were maintained at 37° C. in humidified air containing 8% CO2. To eliminate transferrin carry-over effects, cells were subcultured at 4 day intervals for a total of three passages. At each subculturing, cells were seeded at a density of 2×10^5 cells/mL. Positive control cultures contained 5 μg/mL human holo-transferrin while negative control cultures were established in the absence of either transferrin or metal binding compound. Metal binding compound stocks were prepared at 0.1M-0.2M in ddH2O and solubilized when necessary using 5N NaOH or HCl. Iron complexes were established using 0.2M metal binding compound and iron stocks mixed 1:1 (v/v) and incubated for 5-10 minutes at 22° C. All solutions containing metal binding compounds were filter sterilized using a 0.22 μm Millex-GV filter prior to addition to transferrin and serum-free media.
In most cases, metal binding compounds were evaluated either alone or in combination with ferric chloride or ferrous sulfate at 25 μM, 50 μM and 100 μM. When used in combination, the metal binding compounds were used in equimolar concentration with iron ions. Values in the table represent the mean percentage of control growth for duplicate cultures determined at the third passage.
(§1) When added to the medium formulation un-complexed, the metal binding compound is listed alone, when added as a complex with a transition metal, the source of the transition metal is listed with the metal binding compound.

CHO cells = experiment: Growth of CHO cells in transferrin-free CD CHO medium with metal binding compounds; details: third passage, control = 5 μg/mL human holo-transferrin, duplicate cultures
Experimental: The ability of metal binding compounds to support cellular growth in the absence of transferrin was evaluated using CHO cells maintained in CD CHO medium (Life Technologies, Rockville, Md., the formulation of which is described in WO 98/08934). Stock cultures containing 5 μg/mL human holo-transferrin were prepared in CD CHO medium. For metal binding compound evaluation, CHO cells were established in 125 mL shaker flasks at an initial viable seeding density of 1×10^5 cells/mL in a final volume of 20 mL. All cultures were maintained at 37° C. in humidified air containing 8% CO2. To eliminate transferrin carry-over effects, cells were subcultured at 4 day intervals for a total of three passages. Positive control cultures contained 5 μg/mL human holo-transferrin while negative control cultures were established in the absence of either transferrin or metal binding compound. Metal binding compound stocks were prepared at 0.1M-0.2M in ddH2O and solubilized when necessary using 5N NaOH or HCl. Iron complexes were established using 0.2M metal binding compound and iron stocks mixed 1:1 (v/v) and incubated for 5-10 minutes at 22° C. All solutions containing metal binding compounds were filter sterilized using a 0.22 μm Millex-GV filter prior to addition to transferrin and serum-free media.
(§2) In most cases, metal binding compounds were evaluated either alone or in combination with ferric chloride or ferrous sulfate at 25 μM, 50 μM and 100 μM. Values in the table represent the mean percentage of control growth for duplicate cultures determined at the third passage.
as §1, with “The ability of various metal binding compounds to substitute for transferrin in the culture of CHO cells was determined. When” for “When”

Sp2/0 cells = experiment: Growth of Sp2/0 cells in transferrin-free CD Hybridoma medium with metal binding compounds; details: third passage
Experimental: The ability of iron metal binding compounds to support cellular growth in the absence of transferrin was evaluated using Sp2/0 cells maintained in CD Hybridoma medium (Life Technologies, Rockville, Md.). Stock cultures containing 5 μg/mL human holo-transferrin were prepared in CD Hybridoma medium. For metal binding compound evaluation, Sp2/0 cells were established at an initial viable cell density of 0.5×10^5 cells/mL in stationary culture using 75 cm^2 tissue culture flasks in a final volume of 20 mL. All cultures were maintained at 37° C. in humidified air containing 8% CO2. To eliminate transferrin carry-over effects, cells were subcultured at the same seeding density at 4 day intervals for a total of three passages. Positive control cultures contained 5 μg/mL human holotransferrin while negative control cultures were established in the absence of either transferrin or metal binding compound. Metal binding compound stocks were prepared at 0.1M-0.2M in ddH2O and solubilized when necessary using 5N NaOH or HCl. Iron complexes were established using 0.2M metal binding compound and iron stocks mixed 1:1 (v/v) and incubated for 5-10 minutes at 22° C. All solutions containing metal binding compounds were filter sterilized using a 0.22 μm Millex-GV filter prior to addition to transferrin and serum-free media.
as §2, §1

[1] = 25 μM, control = 5 μg/mL human holo-transferrin, duplicate cultures
[2] = 50 μM, control = 5 μg/mL human holo-transferrin, duplicate cultures
[3] = 100 μM, control = 5 μg/mL human holo-transferrin, duplicate cultures

| SMILES | mean percentage of control growth (293 cells; [1]) | mean percentage of control growth (293 cells; [2]) | mean percentage of control growth (293 cells; [3]) | mean percentage of control growth (Sp2/0 cells; [1]) | mean percentage of control growth (Sp2/0 cells; [2]) | mean percentage of control growth (Sp2/0 cells; [3]) | also measured |
| --- | --- | --- | --- | --- | --- | --- | --- |
| O=S(=O)([O-])[O-].OC[C@@H](O)[C@@H](O)[C@H](O)[C@@H](O)CO.[Fe+2] [Sorbitol · Ferrous Sulfate] | 58% | 69% | 83% | – | – | – | – |
| NCCCCC(N)C(=O)O.[Cl][Fe]([Cl])[Cl] (stereo not drawn) [Lysine · Ferric Chloride] | – | – | – | – | – | – | mean percentage of control growth (CHO cells; 25 μM): 51%; mean percentage of control growth (CHO cells; 50 μM): 79%; mean percentage of control growth (CHO cells; 100 μM): 98% |
| [O-][n+]1cccc(O)c1 [3-Hydroxypyridine-N-Oxide] | 4% | 4% | 4% | – | – | – | – |
| O=S(=O)([O-])[O-].[Fe+2].[O-][n+]1cccc(O)c1 [3-Hydroxypyridine-N-Oxide · Ferrous Sulfate] | 104% | 58% | 0% | – | – | – | – |
| NC(=O)CC(N)C(=O)O.[Cl][Fe]([Cl])[Cl] (stereo not drawn) [Asparagine · Ferric Chloride] | – | – | – | 36% | 51% | 54% | – |
| CC(=O)NO.[Cl][Fe]([Cl])[Cl] [Acetohydroxamic Acid · Ferric Chloride] | 83% | 22% | 0% | – | – | – | mean percentage of control growth (Sp2/0 cells; 5 μM, control = holo-transferrin): 40%; mean percentage of control growth (Sp2/0 cells; 10 μM, control = holo-transferrin): 48%; mean percentage of control growth (Sp2/0 cells; 20 μM, control = holo-transferrin): 47% |
| NCC(=O)O.[Cl][Fe]([Cl])[Cl] [Glycine · Ferric Chloride] | 81% | 71% | 72% | 34% | 61% | 56% | – |
| O=[N+]([O-])c1ncccc1O.[Cl][Fe]([Cl])[Cl] [3-Hydroxy-2-Nitropyridine · Ferric Chloride] | – | – | – | 52% | 62% | 72% | – |
| C1COCCN1.[Cl][Fe]([Cl])[Cl] [Morpholine · Ferric Chloride] | – | – | – | 54% | 64% | 81% | – |
| NC(Cn1ccc(=O)c(O)c1)C(=O)O.[Cl][Fe]([Cl])[Cl] (stereo not drawn) [Mimosine · Ferric Chloride] | 64% | 55% | 80% | – | – | – | – |
| Cc1occc(=O)c1O.[Cl][Fe]([Cl])[Cl] [3-Hydroxy-2-Methyl-4-Pyrone · Ferric Chloride] | – | – | – | 60% | 71% | 75% | – |
| O=C(O)c1ccccn1.O=S(=O)([O-])[O-].[Fe+2] [2-Pyridinecarboxylic Acid · Ferrous Sulfate] | 67% | 48% | 0% | – | – | – | – |
| OC1C(O)C(O)C(O)C(O)C1O.[Cl][Fe]([Cl])[Cl] (stereo not drawn) [Myo-Inositol · Ferric Chloride] | 79% | 87% | 85% | – | – | – | – |
| O=C(O)CN(CC(=O)O)CC(=O)O [Nitriloacetic Acid] | – | – | – | 0% | 0% | 0% | – |
| O=C(O)c1cccc(O)c1O.[Cl][Fe]([Cl])[Cl] [2,3-Dihydrobenzoic Acid · Ferric Chloride] | – | – | – | – | – | – | mean percentage of control growth (CHO cells; 25 μM): 71%; mean percentage of control growth (CHO cells; 50 μM): 0%; mean percentage of control growth (CHO cells; 100 μM): 0% |
| [Cl][Fe]([Cl])[Cl].c1ccc(-c2ccccn2)nc1 [2,2-Dipyridyl · Ferric Chloride] | 51% | 96% | 0% | – | – | – | – |
| NC(CCC(=O)O)C(=O)O.[Cl][Fe]([Cl])[Cl] (stereo not drawn) [Glutamic Acid · Ferric Chloride] | 102% | 68% | 83% | – | – | – | – |
| Cc1occc(=O)c1O [3-Hydroxy-2-Methyl-4-Pyrone (Maltol), 3-Hydroxy-2-Methyl-4-Pyrone] | 0% | 28% | 81% | 0% | 0% | 0% | – |
| CC(=O)N[C@@H](CS)C(=O)O.[Cl][Fe]([Cl])[Cl] [N-Acetyl-Cysteine · Ferric Chloride] | 88% | 82% | 52% | – | – | – | – |
| O=C(O)c1cccnc1O.[Cl][Fe]([Cl])[Cl] [2-Hydroxynicotinic Acid · Ferric Chloride] | – | – | – | 64% | 82% | 85% | mean percentage of control growth (293 cells; 100 μM (row note: 293 tested at 100, 150, 200 μM; first column)): 0%; mean percentage of control growth (293 cells; 150 μM (row note: 293 tested at 100, 150, 200 μM; second column)): 0%; mean percentage of control growth (293 cells; 200 μM (row note: 293 tested at 100, 150, 200 μM; third column)): 99% |
| O=C(O)CN(CC(=O)O)CC(=O)O.O=S(=O)([O-])[O-].[Fe+2] [Nitriloacetic Acid · Ferrous Sulfate] | 75% | 95% | 0% | – | – | – | – |
| O=C(O)CN(CCN(CC(=O)O)CC(=O)O)CCN(CC(=O)O)CC(=O)O.[Cl][Fe]([Cl])[Cl] [Diethylenetriamine Penta-Acetic Acid · Ferric Chloride] | 79% | 96% | 102% | – | – | – | – |

Reference: patent US6767741B1, “Metal binding compounds and their use in cell culture medium compositions” (Invitrogen Corporation, priority 1999, dated 2004)
